Assay results reported in US20160102058A1, “FLUORO-PERHEXILINE COMPOUNDS AND THEIR THERAPEUTIC USE” (THE UNIVERSITY COURT OF THE UNIVERSITY OF ABERDEEN, priority 2013, published 2016).

What was measured:
CYP2D6 = biological target: T1, CYP2D6 (Homo sapiens, UniProt P10635); assay: Cytochrome P450 2D6 reaction phenotyping (Bactosomes); type: in vitro ADME; settings: for half-life at 5 μM: human, pH 7.4, read-out: T½; for stability towards CYP2D6 compared with perhexiline (in words): versus perhexiline
T1 construct: purchased Cypex Ltd; host or cells: bacterial membranes (Bactosomes)
Description: The stability of fluoroperhexiline derivatives towards CYP2D6-mediated metabolism was measured by determination of the rate of compound disappearance when incubated in the presence CYP2D6 recombinant isoform expression systems (Bactosomes™). The percentage of parent compound remaining at each time point (following correction for any loss in the incubations with the control bactosomes) is calculated. cDNA expressed human CYP450 enzyme preparations co-expressed with human NADPH cytochrome P450 reductase (Bactosomes™) are supplied by Cypex Ltd. Bactosomes™ are stored at −80° C. prior to use. […] Incubations are also performed using control bactosomes (no P450 enzymes present) to reveal any non-enzymatic degradation. The final incubation volume is 25 μL. A compound known to be metabolised specifically by CYP2D6 isoform is used as a control compound. Each compound is incubated singly for 0, 5, 15, 30 and 45 min with each isoform. The reactions are stopped by the addition of 50 μL methanol containing internal standard at the appropriate time points. The incubation plates are centrifuged at 2500 rpm for 20 min at 4° C. to precipitate the protein. Following protein precipitation, the sample supernatants are combined in cassettes of up to four compounds and analysed using Cyprotex generic LC-MS/MS conditions. The natural logarithm of the peak area ratio (which has been corrected for any loss in the incubations with the control bactosomes) is plotted against time and the gradient of the line determined. Elimination Rate Constant (k)=(−Gradient).

[1] = Human liver microsomal (HLM) stability assay; type: in vitro ADME; settings: for microsomal CLint at 3 μM / half-life at 3 μM: both sexes, pH 7.4, human liver microsomes, 3 μM test compound; for microsomal CLint at 3 μM: read-out: CLint (μL/min/mg protein) HLM; for half-life at 3 μM: read-out: T½ (min) HLM; for metabolic stability compared with perhexiline (in words): human and rat liver microsomes, versus perhexiline
Description: The metabolic stability of fluoroperhexiline derivatives was measured by determination of the rate of compound disappearance when incubated in the presence of both human and rat liver microsomes. Liver microsomes are prepared from the endoplasmic reticulum of hepatocytes and are the primary source of the most important enzymes (cytochrome P450) involved in drug metabolism. Study of drug stability in the presence of liver microsomes is accepted as a valuable model permitting rapid prediction of in vivo drug stability.
Human and rat liver microsomes were obtained from a commercial source. Test compounds (3 μM) were incubated with pooled liver microsomes (male and female). Samples were incubated for a 45 minute period and removed at 5 time points and test compounds were analysed by LC-MS/MS.
Microsomes (final protein concentration 0.5 mg/mL), 0.1 M phosphate buffer pH 7.4, and test compound (final concentration 3 μM; diluted from 10 mM stock solution to give a final DMSO concentration of 0.25%) were incubated at 37° C. prior to the addition of NADPH (final concentration 1 mM) to initiate the reaction. The final incubation volume was 25 μL. A control incubation was included for each compound tested, where 0.1 M phosphate buffer pH 7.4 was added instead of NADPH. The control compounds testosterone and 7-hydroxycoumarin were included in each experiment and all incubations were performed singularly for each compound.
Each compound was incubated for 0, 5, 15, 30, and 45 minutes. The control (minus NADPH) was incubated for 45 minutes only. The reactions were stopped by the addition of 50 μL methanol containing internal standard at the appropriate time points. The incubation plates were centrifuged at 2500 rpm for 20 minutes at 4° C. to precipitate the protein.
Following protein precipitation, the sample supernatants were combined in cassettes of up to 4 compounds and analysed using standard LC-MS/MS conditions.
From a plot of the natural logarithm of the peak area ratio (i.e., the ratio of compound peak area:internal standard peak area) against time, the gradient of the line was determined. Subsequently, half-life and intrinsic clearance were calculated using the equations below:
Eliminated Rate Constant (k)=(−Gradient).
Half-Life (t1/2) (min)=0.063/k.
Intrinsic Clearance (CLint) […]=(V×0.693)/t1/2. • wherein V=Incubation Volume (μL/mg microsomal protein).

[2] = recombinant CYP2D6 Bactosomes, 5 μM test compound

T1 sequence (P10635 whole entry): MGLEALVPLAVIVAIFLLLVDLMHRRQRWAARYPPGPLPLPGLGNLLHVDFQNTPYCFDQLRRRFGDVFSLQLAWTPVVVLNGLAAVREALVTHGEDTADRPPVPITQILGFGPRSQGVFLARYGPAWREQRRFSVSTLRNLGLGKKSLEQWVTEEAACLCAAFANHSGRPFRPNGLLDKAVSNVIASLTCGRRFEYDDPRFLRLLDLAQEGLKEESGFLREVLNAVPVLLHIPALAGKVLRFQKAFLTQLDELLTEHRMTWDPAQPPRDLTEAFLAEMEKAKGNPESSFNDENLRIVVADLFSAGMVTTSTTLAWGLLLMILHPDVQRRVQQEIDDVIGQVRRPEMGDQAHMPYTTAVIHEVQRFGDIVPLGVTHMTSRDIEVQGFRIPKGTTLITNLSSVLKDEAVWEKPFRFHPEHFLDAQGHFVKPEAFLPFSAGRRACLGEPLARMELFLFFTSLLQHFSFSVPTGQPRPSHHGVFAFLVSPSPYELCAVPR

microsomal CLint at 3 μM [1] [µL/min/mg] | half-life at 3 μM [1] [min] | T½ (CYP2D6; [2]) [min] | SMILES | half-life at 5 μM (CYP2D6; [2]) [min] | stability towards CYP2D6 compared with perhexiline (in words) (CYP2D6) | metabolic stability compared with perhexiline (in words) [1]
2.6 | 525 | 104 | FC1(F)CCC(C(CC2CCCCN2)C2CCCCC2)CC1 (mixture of isomers) [FPER-001, 2-(2-Cyclohexyl-2-(4,4-difluorocyclohexyl)ethyl)piperidine] |  | substantial increase in stability towards CYP2D6 | substantial increase in metabolic stability
21.3 | 65 |  | FC1CCC(C(CC2CCCCN2)C2CCCCC2)CC1 (mixture of isomers) [FPER-003, 2-(2-Cyclohexyl-2-(4-fluorocyclohexyl)ethyl)piperidine] | 16 | no increase in stability | substantial decrease in stability

SMILES | microsomal CLint at 3 μM [1] [µL/min/mg] | half-life at 3 μM [1] [min] | T½ (CYP2D6; [2]) [min] | half-life at 5 μM (CYP2D6; [2]) [min] | stability towards CYP2D6 compared with perhexiline (in words) (CYP2D6) | metabolic stability compared with perhexiline (in words) [1]
C1CCC(C(CC2CCCCN2)C2CCCCC2)CC1 (stereo not shown) [Perhexiline, 2-(2,2-dicyclohexylethyl)piperidine] | 13.8 | 100 |  | 14 |  | 
